Measurements: ChEMBL document CHEMBL6114961, “Novel isoxazole thiophene-containing compounds active against Mycobacterium tuberculosis” (Bioorg Med Chem Lett, 2025)
pEC50, pIC50: −log10 of the molar value. In brackets after ≈: the same amount, converted by molar mass.

Legend:
[1] = tested on: HepG2; experiment: Cytotoxicity against human HepG2 cells measured after 3 days by Cell Titer-Glo Luminescent Cell Viability Assay; type: functional; conditions: HepG2, 72 h, time 3 day
[2] = tested on: Mycobacterium tuberculosis; experiment: Antituberculosis activity against Mycobacterium tuberculosis H37Rv infected in human THP-1 cells assessed as reduction in bacterial growth pre-infected with bacteria for 24 hrs followed by compound addition and measured 3 days by luminescence based intramacrophage assay; type: functional, organism-based
[3] = Metabolic stability in mouse liver microsomes assessed as intrinsic clearance; type: ADME, Microsome; conditions: read-out: CLH
[4] = MRT (0 tot 24 hrs) in male CD-1 mouse at 20 mg/kg, po; type: ADME, organism-based; conditions: in vivo
[5] = Tmax in male CD-1 mouse at 20 mg/kg, po; type: ADME, organism-based; conditions: in vivo
[6] = AUC (0 tot 24 hrs) in male CD-1 mouse at 3 mg/kg, iv; type: ADME, organism-based; conditions: in vivo
[7] = Cmax in male CD-1 mouse at 20 mg/kg, po; type: ADME, organism-based; conditions: in vivo
[8] = AUC (0 tot 24 hrs) in male CD-1 mouse at 20 mg/kg, po; type: ADME, organism-based; conditions: in vivo
[9] = Plasma concentration in male CD-1 mouse at 20 mg/kg, po measured for 6 hrs; type: ADME, organism-based
[10] = Oral bioavailability in male CD-1 mouse at 20 mg/kg; type: ADME, organism-based; conditions: in vivo
[11] = Plasma protein binding in mouse assessed as unbound fraction; type: ADME, cell-free
[12] = Half life in male CD-1 mouse at 20 mg/kg, po; type: ADME, organism-based; conditions: in vivo
[13] = Selectivity index, ratio of CC50 for Cytotoxicity against human HepG2 cells to MIC for antituberculosis activity against Mycobacterium tuberculosis H37Rv assessed as reduction in bacterial growth; type: toxicity, cell-based, Hep G2; conditions: read-out: Selectivity Index
[14] = tested on: Mycobacterium tuberculosis; experiment: Antituberculosis activity against Mycobacterium tuberculosis H37Rv assessed as reduction in bacterial growth measured after 7 days using 7H9 broth by Alamar blue staining based analysis; type: functional; conditions: 168 h, time 7 day
[15] = Apparent permeability in human Caco-2 cells across basolateral side to apical side; type: ADME, cell-based
[16] = Plasma concentration in male CD-1 mouse at 20 mg/kg, po measured for 14 hrs; type: ADME, organism-based
[17] = target: Cytochrome P450 2C19 (Homo sapiens, UniProt P33261); experiment: Inhibition of CYP2C19 (unknown origin); type: ADME
[18] = target: Voltage-gated inwardly rectifying potassium channel KCNH2 (Homo sapiens, UniProt Q12809); experiment: Inhibition of human ERG; type: toxicity
[19] = target: Cytochrome P450 2C9 (Homo sapiens, UniProt P11712); experiment: Inhibition of CYP2C9 (unknown origin); type: ADME
[20] = tested on: Mycobacterium tuberculosis; experiment: Bactericidal activity against non-replicating Mycobacterium tuberculosis Hu-Coates model assessed as reduction in CFU at 20 uM in presence of BPaL; type: functional
[21] = target: Cytochrome P450 3A4 (Homo sapiens, UniProt P08684); experiment: Inhibition of CYP3A4 (unknown origin); type: ADME
[22] = tested on: Mycobacterium tuberculosis; experiment: Bactericidal activity against non-replicating Mycobacterium tuberculosis Hu-Coates model assessed as reduction in CFU at 20 uM; type: functional
[23] = Apparent permeability in human Caco-2 cells across apical to basolateral side; type: ADME, cell-based
[24] = target: Cytochrome P450 2D6 (Homo sapiens, UniProt P10635); experiment: Inhibition of CYP2D6 (unknown origin); type: ADME
[25] = target: T1, Cytochrome P450 1A2 (Homo sapiens, UniProt P05177); experiment: Inhibition of CYP1A2 (unknown origin); type: ADME
T1 sequence (P05177 whole entry): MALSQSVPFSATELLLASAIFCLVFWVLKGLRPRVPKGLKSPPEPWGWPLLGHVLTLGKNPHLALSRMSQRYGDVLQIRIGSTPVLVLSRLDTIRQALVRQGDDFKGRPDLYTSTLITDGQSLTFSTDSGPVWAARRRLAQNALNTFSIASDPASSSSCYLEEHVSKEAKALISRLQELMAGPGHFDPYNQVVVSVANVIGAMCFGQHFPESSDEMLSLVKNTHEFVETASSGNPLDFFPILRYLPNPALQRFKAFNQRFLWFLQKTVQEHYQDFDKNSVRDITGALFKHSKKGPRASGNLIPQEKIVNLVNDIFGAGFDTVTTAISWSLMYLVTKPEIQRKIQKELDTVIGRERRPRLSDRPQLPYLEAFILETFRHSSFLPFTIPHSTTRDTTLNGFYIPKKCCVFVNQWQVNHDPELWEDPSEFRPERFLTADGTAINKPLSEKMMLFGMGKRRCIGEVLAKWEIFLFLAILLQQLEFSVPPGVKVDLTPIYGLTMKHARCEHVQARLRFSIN

Sequence of Voltage-gated inwardly rectifying potassium channel KCNH2 (Q12809 whole entry): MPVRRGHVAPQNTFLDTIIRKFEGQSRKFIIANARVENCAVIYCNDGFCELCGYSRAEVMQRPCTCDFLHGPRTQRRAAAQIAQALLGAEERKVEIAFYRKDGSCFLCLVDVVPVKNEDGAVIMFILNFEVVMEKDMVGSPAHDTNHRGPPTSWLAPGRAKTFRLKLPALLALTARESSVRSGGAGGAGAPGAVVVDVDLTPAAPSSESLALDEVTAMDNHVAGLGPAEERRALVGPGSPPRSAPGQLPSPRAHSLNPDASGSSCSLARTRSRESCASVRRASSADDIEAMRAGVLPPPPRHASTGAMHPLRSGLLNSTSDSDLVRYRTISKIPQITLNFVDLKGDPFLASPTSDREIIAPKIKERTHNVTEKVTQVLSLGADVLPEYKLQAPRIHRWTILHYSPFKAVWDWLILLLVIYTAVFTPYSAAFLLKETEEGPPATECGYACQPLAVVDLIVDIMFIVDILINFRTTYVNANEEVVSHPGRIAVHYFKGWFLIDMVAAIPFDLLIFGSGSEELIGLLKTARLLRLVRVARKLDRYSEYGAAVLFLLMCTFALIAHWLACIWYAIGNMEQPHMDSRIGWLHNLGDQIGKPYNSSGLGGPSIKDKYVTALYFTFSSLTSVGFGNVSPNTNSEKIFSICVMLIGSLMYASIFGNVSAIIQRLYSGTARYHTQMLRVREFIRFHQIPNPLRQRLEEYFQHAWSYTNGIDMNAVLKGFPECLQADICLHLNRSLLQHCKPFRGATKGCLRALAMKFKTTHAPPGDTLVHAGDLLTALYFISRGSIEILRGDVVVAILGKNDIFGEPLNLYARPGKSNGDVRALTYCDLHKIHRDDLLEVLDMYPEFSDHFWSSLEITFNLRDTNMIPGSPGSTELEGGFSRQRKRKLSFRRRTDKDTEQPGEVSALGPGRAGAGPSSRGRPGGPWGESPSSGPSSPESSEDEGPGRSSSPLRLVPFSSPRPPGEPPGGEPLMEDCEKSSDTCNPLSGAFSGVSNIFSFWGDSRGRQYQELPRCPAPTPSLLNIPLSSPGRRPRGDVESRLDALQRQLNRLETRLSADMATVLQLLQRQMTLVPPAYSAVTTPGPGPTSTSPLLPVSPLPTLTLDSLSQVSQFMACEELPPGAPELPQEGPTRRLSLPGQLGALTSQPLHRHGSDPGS
Sequence of Cytochrome P450 2D6 (P10635 whole entry): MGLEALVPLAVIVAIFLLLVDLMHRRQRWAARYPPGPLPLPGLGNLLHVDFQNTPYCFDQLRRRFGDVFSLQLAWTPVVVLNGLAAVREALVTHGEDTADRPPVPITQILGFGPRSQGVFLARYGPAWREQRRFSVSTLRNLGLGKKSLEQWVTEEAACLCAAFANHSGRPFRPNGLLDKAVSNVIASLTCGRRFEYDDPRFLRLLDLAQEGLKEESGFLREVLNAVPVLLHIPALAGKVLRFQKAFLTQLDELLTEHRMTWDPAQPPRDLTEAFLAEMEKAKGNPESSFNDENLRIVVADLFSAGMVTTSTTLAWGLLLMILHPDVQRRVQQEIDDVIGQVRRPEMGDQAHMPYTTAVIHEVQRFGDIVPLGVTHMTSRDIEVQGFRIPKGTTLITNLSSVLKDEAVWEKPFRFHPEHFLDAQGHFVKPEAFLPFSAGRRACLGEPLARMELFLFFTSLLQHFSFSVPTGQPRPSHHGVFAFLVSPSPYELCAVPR
Sequence of Cytochrome P450 2C9 (P11712 whole entry): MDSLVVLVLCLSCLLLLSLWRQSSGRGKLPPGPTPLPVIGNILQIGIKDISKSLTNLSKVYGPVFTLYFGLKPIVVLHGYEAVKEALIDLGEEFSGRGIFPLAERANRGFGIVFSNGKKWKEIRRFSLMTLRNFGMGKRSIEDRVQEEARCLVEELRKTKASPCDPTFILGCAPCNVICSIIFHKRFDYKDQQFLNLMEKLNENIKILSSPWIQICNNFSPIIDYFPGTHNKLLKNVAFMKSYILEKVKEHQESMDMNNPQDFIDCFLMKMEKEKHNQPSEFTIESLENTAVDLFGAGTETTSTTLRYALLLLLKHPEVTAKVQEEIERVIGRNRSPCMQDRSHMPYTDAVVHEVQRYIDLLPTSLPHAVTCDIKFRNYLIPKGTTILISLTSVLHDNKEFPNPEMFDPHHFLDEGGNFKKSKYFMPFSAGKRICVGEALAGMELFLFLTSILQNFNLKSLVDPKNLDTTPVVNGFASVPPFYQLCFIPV
Sequence of Cytochrome P450 3A4 (P08684 whole entry): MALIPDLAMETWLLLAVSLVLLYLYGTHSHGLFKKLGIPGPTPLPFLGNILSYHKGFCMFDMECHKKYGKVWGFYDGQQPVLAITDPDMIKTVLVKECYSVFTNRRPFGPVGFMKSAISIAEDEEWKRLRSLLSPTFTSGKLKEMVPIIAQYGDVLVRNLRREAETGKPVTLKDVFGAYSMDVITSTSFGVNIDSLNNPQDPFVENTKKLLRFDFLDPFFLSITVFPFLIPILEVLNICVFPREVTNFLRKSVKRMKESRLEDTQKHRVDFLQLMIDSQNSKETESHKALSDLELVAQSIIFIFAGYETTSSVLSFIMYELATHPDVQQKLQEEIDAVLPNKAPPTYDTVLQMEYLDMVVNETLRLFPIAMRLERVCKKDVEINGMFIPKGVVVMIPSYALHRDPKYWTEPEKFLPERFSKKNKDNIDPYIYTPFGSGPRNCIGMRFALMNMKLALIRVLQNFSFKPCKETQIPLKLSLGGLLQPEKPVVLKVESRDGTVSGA
Sequence of Cytochrome P450 2C19 (P33261 whole entry): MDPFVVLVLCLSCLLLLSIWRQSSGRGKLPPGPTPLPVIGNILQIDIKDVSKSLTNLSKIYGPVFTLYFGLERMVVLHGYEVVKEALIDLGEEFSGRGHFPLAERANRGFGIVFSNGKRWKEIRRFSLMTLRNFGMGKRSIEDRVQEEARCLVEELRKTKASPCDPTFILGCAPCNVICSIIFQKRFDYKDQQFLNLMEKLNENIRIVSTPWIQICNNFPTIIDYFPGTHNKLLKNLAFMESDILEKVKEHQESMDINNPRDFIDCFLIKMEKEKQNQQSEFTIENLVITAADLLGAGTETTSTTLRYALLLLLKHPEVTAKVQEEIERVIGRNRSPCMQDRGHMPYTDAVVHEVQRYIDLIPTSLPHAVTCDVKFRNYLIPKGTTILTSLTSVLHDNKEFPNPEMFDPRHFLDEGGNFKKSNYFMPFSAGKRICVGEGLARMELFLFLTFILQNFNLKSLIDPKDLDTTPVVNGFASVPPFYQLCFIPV

Q: For `O=S(=O)(Nc1cc(-c2ccsc2)no1)c1ccc2c(c1)CCC2`, which CC50 [1] is on record?
A: Its CC50 is over 40 µM.

Q: And the pEC50 [2]?
A: The pEC50 was 4.60.

Q: Which CC50 [1] does the source give for `O=S(=O)(Nc1cc(-c2ccoc2)no1)C1CCOCC1` here?
A: Its CC50 is over 40 µM.

Q: And the pEC50 [2]?
A: Its pEC50 is under 4.60.

Q: What does the source list for `O=S(=O)(Nc1cc(-c2ccsc2)no1)c1cccc(F)c1`?
A: CC50 [1]: > 40 µM; pEC50 [2]: 4.61

Q: For `O=S(=O)(Nc1cc(-c2ccsc2)no1)c1c(F)cccc1F`, which CC50 [1] is on record?
A: The CC50 was over 40 µM.

Q: And the pEC50 [2]?
A: Its pEC50 is 4.86.

Q: Which CC50 [1] does the source give for `O=S(=O)(Nc1cc(-c2ccsc2)no1)c1ccc2c(c1)CC2` here?
A: Its CC50 is over 40 µM.

Q: And the pEC50 [2]?
A: Its pEC50 is 5.44.

Q: What does the source list for `O=S(=O)(Nc1cc(-c2ccsn2)no1)C1CCOCC1`?
A: CC50 [1]: > 25 µM; pEC50 [2]: < 4.60

Q: What does the source list for `O=S(=O)(Nc1cc(-c2csc(C(F)(F)F)c2)no1)c1ccccc1F`?
A: CC50 [1]: > 40 µM; pEC50 [2]: < 4.60

Q: With `O=S(=O)(Nc1cc(-c2ccsc2)no1)C1CCNCC1` as the molecule, how does the CC50 [1] read?
A: Its CC50 is over 40 µM.

Q: What about the pEC50 [2] of the same molecule?
A: Its pEC50 is under 4.60.

Q: What does the source list for `O=S(=O)(CC1CCOCC1)Nc1cc(-c2ccsc2)no1`?
A: CC50 [1]: > 40 µM; pEC50 [2]: < 4.60

Q: For `O=S(=O)(Nc1cc(-c2ccsc2)no1)C1CCC(F)(F)CC1`, which CC50 [1] is on record?
A: Its CC50 is over 40 µM.

Q: And the pEC50 [2]?
A: The pEC50 was under 4.60.

Q: With `O=S(=O)(Nc1cc(-c2ccsc2)no1)C1CCOC1` (stereo unspecified) as the molecule, how does the CC50 [1] read?
A: The CC50 was over 40 µM.

Q: And the pEC50 [2]?
A: Its pEC50 is under 4.60.

Q: With `O=S(=O)(Nc1cc(-c2cccnc2)no1)c1ccccc1F` as the molecule, how does the CC50 [1] read?
A: The CC50 was over 40 µM.

Q: What about the pEC50 [2] of the same molecule?
A: The pEC50 was 4.61.

Q: With `O=S(=O)(Nc1cc(-c2ccsc2)no1)C1CCOCC1` as the molecule, how does the microsomal CLint [3] read?
A: The microsomal CLint was 0.2 µL/min/mg.

Q: And the MRT last at 24 h [4]?
A: Its MRT last at 24 h is 1.7 h.

Q: What about the CC50 [1] of the same molecule?
A: Its CC50 is over 40 µM.

Q: And the pEC50 [2]?
A: The pEC50 was 5.71.

Q: What about the Tmax [5] of the same molecule?
A: The Tmax was 0.67 h.

Q: And the AUC [6]?
A: The AUC was 11076 ng·min/mL.

Q: What about the Cmax [7] of the same molecule?
A: Its Cmax is 24200 ng/mL.

Q: What about the AUC(0-t) at 24 h [8] of the same molecule?
A: Its AUC(0-t) at 24 h is 713 ng·h/mL.

Q: What about the concentration at 6 h [9] of the same molecule?
A: The concentration at 6 h was 613 ng/mL.

Q: What about the bioavailability [10] of the same molecule?
A: Its bioavailability is 58%.

Q: What about the fraction unbound [11] of the same molecule?
A: The fraction unbound was 0.845.

Q: What about the half-life [12] of the same molecule?
A: Its half-life is 2.19 h.

Q: For `CN(c1cc(-c2ccsc2)no1)S(=O)(=O)c1ccccc1F`, which CC50 [1] is on record?
A: Its CC50 is over 40 µM.

Q: What about the pEC50 [2] of the same molecule?
A: Its pEC50 is 4.90.

Q: Which results are given for `O=S(=O)(Nc1cc(-c2ccsc2)no1)c1ccccc1F`?
A: microsomal CLint [3]: 5.6 µL/min/mg; selectivity ratio [13]: > 32; MIC90 [14]: 1.24 µM (≈ 0.402 µg/mL); Papp B→A [15]: 27.3 ×10⁻⁶ cm/s; MRT last at 24 h [4]: 3.44 h; CC50 [1]: > 40 µM; pEC50 [2]: 5.53; Tmax [5]: 0.67 h; concentration at 14 h [16]: 949 ng/mL; pIC50 [17]: 4.55; AUC [6]: 50981 ng·min/mL; Cmax [7]: 64200 ng/mL; pIC50 [18]: < 4.52; AUC(0-t) at 24 h [8]: 4450 ng·h/mL; pIC50 [19]: 5.49; Activity [20]: 3 log10CFU; pIC50 [21]: < 4.30; Activity [22]: 1.02 log10CFU; Papp A→B [23]: 3.6 ×10⁻⁶ cm/s; pIC50 [24]: < 4.30; bioavailability [10]: 78%; fraction unbound [11]: 0.996; half-life [12]: 1.83 h; pIC50 [25]: < 4.30

Q: What does the source list for `O=S(=O)(Nc1cc(-c2ccsc2)no1)c1cccc(F)c1F`?
A: CC50 [1]: > 40 µM; pEC50 [2]: < 4.60

Q: Which results are given for `O=S(=O)(Nc1cc(-c2ccsc2)no1)c1ccc(F)cc1F`?
A: CC50 [1]: > 40 µM; pEC50 [2]: 4.60

Q: For `Cc1cc(-c2cc(NS(=O)(=O)c3ccccc3F)on2)c(C)s1`, which CC50 [1] is on record?
A: Its CC50 is over 40 µM.

Q: And the pEC50 [2]?
A: Its pEC50 is 4.61.

Q: Which CC50 [1] does the source give for `O=S(=O)(Nc1cc(-c2cccs2)no1)C1CCOCC1` here?
A: The CC50 was over 40 µM.

Q: And the pEC50 [2]?
A: Its pEC50 is under 4.60.

Q: With `O=S(=O)(Nc1noc(-c2ccsc2)n1)C1CCOCC1` as the molecule, how does the pEC50 [2] read?
A: The pEC50 was under 4.60.

Q: With `O=S(=O)(Nc1cc(-c2ccsc2)no1)c1c(F)cc(F)cc1F` as the molecule, how does the CC50 [1] read?
A: The CC50 was over 40 µM.

Q: And the pEC50 [2]?
A: The pEC50 was under 4.60.

Q: Which results are given for `O=S(=O)(Nc1cc(-c2ccsc2)no1)c1ccccc1`?
A: CC50 [1]: > 40 µM; pEC50 [2]: < 4.60

Q: Which results are given for `O=S(=O)(Nc1cc(-c2ccsc2)no1)C1CCCCC1`?
A: CC50 [1]: > 40 µM; pEC50 [2]: 4.60

Q: For `O=C(Nc1cc(-c2ccsc2)no1)c1ccccc1F`, which CC50 [1] is on record?
A: The CC50 was over 40 µM.

Q: What about the pEC50 [2] of the same molecule?
A: Its pEC50 is 4.64.

Q: Which CC50 [1] does the source give for `O=S(=O)(Nc1cc(-c2ccsc2)no1)c1cccnc1F` here?
A: The CC50 was over 40 µM.

Q: And the pEC50 [2]?
A: Its pEC50 is under 4.60.

Q: With `O=S(=O)(Nc1cc(-c2csc(Cl)c2)no1)C1CCOCC1` as the molecule, how does the CC50 [1] read?
A: The CC50 was over 40 µM.

Q: What about the pEC50 [2] of the same molecule?
A: The pEC50 was under 4.60.

Q: With `O=S(=O)(Nc1cc(-c2ccsc2)no1)c1ccccc1Cl` as the molecule, how does the CC50 [1] read?
A: Its CC50 is over 40 µM.

Q: And the pEC50 [2]?
A: Its pEC50 is 4.83.

Q: Which CC50 [1] does the source give for `CC1(C)COCCC1S(=O)(=O)Nc1cc(-c2ccsc2)no1` (stereo unspecified) here?
A: Its CC50 is over 40 µM.

Q: And the pEC50 [2]?
A: The pEC50 was under 4.60.

Q: Which CC50 [1] does the source give for `O=S(=O)(Nc1cc(-c2ccsc2)no1)c1cc(F)ccc1F` here?
A: The CC50 was over 40 µM.

Q: What about the pEC50 [2] of the same molecule?
A: The pEC50 was under 4.60.

Q: Which CC50 [1] does the source give for `O=S(=O)(Nc1cc(-c2cscn2)no1)C1CCOCC1` here?
A: Its CC50 is over 40 µM.

Q: And the pEC50 [2]?
A: The pEC50 was under 4.60.
